Test results: ChEMBL document CHEMBL1201862, “PubChem BioAssay data set” (2004)
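How tested: cells in 96-well plates exposed to compound for 48 hours at five concentrations. GI50: concentration for 50% inhibition of growth.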 Active and inactive are the calls of the source. Cut-off read from the data, not from the text of the source: active = GI50 up to about 1.1 µM and inactive = higher.

What was measured:
Experiment in all cases: NCI anticancer screen, dose series, 48 h
[1] = system: A549
[2] = system: M14
[3] = system: IGROV-1
[4] = system: NCI-H460
[5] = system: NCI-H226
[6] = system: HCT-116
[7] = system: OVCAR-8
[8] = system: SK-OV-3
[9] = system: HOP-62
[10] = system: KM12
[11] = system: SNB-75
[12] = system: NCI-H23
[13] = system: OVCAR-3
[14] = system: CCRF-CEM
[15] = system: OVCAR-5
[16] = system: SNB-19
[17] = system: HCT-15
[18] = system: CAKI-1
[19] = system: Hs-578T
[20] = system: LXFL 529

| Structure (SMILES) | GI50 [1] | GI50 [2] | GI50 [3] | GI50 [4] | GI50 [5] | GI50 [6] | GI50 [7] | GI50 [8] | GI50 [9] | GI50 [10] | GI50 [11] | GI50 [12] | GI50 [13] | GI50 [14] | GI50 [15] | GI50 [16] | GI50 [17] [µM] | GI50 [18] | GI50 [19] | GI50 [20] |
| --- | --- | --- | --- | --- | --- | --- | --- | --- | --- | --- | --- | --- | --- | --- | --- | --- | --- | --- | --- | --- |
| CC1(C)CC(=O)/C(=C/C2CCNC2=S)C(=O)N1 (stereo not drawn) | > 100 µM (inactive) | > 100 µM (inactive) | > 100 µM (inactive) | > 100 µM (inactive) | > 100 µM (inactive) | > 100 µM (inactive) | > 100 µM (inactive) | > 100 µM (inactive) | > 100 µM (inactive) | > 100 µM (inactive) | > 100 µM (inactive) | > 100 µM (inactive) | > 100 µM (inactive) | > 100 µM (inactive) | > 100 µM (inactive) | > 100 µM (inactive) | > 100 | > 100 µM (inactive) | > 100 µM (inactive) |  |
| CC1=Nn2c(nnc2-c2ccc(N)cc2)NC(C)(C)C1 | > 100 µM (inactive) | > 100 µM (inactive) | > 100 µM (inactive) | > 100 µM (inactive) | > 100 µM (inactive) |  |  | > 100 µM (inactive) | > 100 µM (inactive) | > 100 µM (inactive) |  | > 100 µM (inactive) | > 100 µM (inactive) | > 100 µM (inactive) | > 100 µM (inactive) | > 100 µM (inactive) | > 100 | > 100 µM (inactive) |  | > 100 µM (inactive) |
| COC12OCCN(C)C1=CC(=O)C1=NNC(C)C12 (stereo not drawn) | > 100 µM (inactive) | > 100 µM (inactive) | > 100 µM (inactive) | > 100 µM (inactive) | > 100 µM (inactive) | > 100 µM (inactive) | > 100 µM (inactive) | > 100 µM (inactive) |  | > 100 µM (inactive) | > 100 µM (inactive) | > 100 µM (inactive) | > 100 µM (inactive) | > 100 µM (inactive) |  |  | > 100 | > 100 µM (inactive) |  | > 100 µM (inactive) |
| N#CC1(CCCCl)CCCCC1 | > 100 µM (inactive) | > 100 µM (inactive) | > 100 µM (inactive) | > 100 µM (inactive) |  | > 100 µM (inactive) | > 100 µM (inactive) | > 100 µM (inactive) |  | > 100 µM (inactive) | 32.4 µM (inactive) | > 100 µM (inactive) | > 100 µM (inactive) | > 100 µM (inactive) | > 100 µM (inactive) | > 100 µM (inactive) | > 100 |  |  | > 100 µM (inactive) |
| CCCC#CC(O)(C(=O)OC1CCN(C)CC1)C1CCCCC1 (stereo not drawn) | > 100 µM (inactive) | 58.6 µM (inactive) | > 100 µM (inactive) | > 100 µM (inactive) | 94.4 µM (inactive) | > 100 µM (inactive) | > 100 µM (inactive) | > 100 µM (inactive) | 52 µM (inactive) | > 100 µM (inactive) | 57 µM (inactive) | > 100 µM (inactive) | > 100 µM (inactive) | > 100 µM (inactive) | > 100 µM (inactive) | > 100 µM (inactive) | > 100 | > 100 µM (inactive) | 14.1 µM (inactive) |  |
| Oc1c(CN2CCCC2)ccc2cccnc12 | 22.6 µM (inactive) | 15.7 µM (inactive) | 18.8 µM (inactive) | 20.3 µM (inactive) | 21.5 µM (inactive) | 14.1 µM (inactive) | 11 µM (inactive) | 25.9 µM (inactive) | 13.3 µM (inactive) | 24.8 µM (inactive) | 37.5 µM (inactive) | 27 µM (inactive) | 23.9 µM (inactive) | 8.77 µM (inactive) | 31.6 µM (inactive) | 18.3 µM (inactive) | 2.84 | 6.04 µM (inactive) | > 83.4 µM (inactive) |  |
| Cc1[nH]c2ncn(/N=C/c3ccccc3)c(=N)c2c1Cc1ccccc1 | > 100 µM (inactive) | > 100 µM (inactive) | > 100 µM (inactive) | > 100 µM (inactive) | 95.5 µM (inactive) | 87.3 µM (inactive) | > 100 µM (inactive) | > 100 µM (inactive) | > 100 µM (inactive) | 75.7 µM (inactive) | > 100 µM (inactive) | > 100 µM (inactive) | > 100 µM (inactive) | > 100 µM (inactive) | > 100 µM (inactive) | > 100 µM (inactive) | > 100 | > 100 µM (inactive) | > 100 µM (inactive) |  |
| Cn1cc(-c2n[nH]c(-c3ccc(Cl)cc3)nc2=O)c2ccccc21 | 3.94 µM (inactive) | 3.18 µM (inactive) | 4.58 µM (inactive) | 2.33 µM (inactive) | 3.84 µM (inactive) | 2.12 µM (inactive) | 5.62 µM (inactive) | 4.31 µM (inactive) | 5.36 µM (inactive) | 0.776 µM (active) | 3.11 µM (inactive) | 4.28 µM (inactive) | 0.979 µM (active) | 1.77 µM (inactive) | 4.34 µM (inactive) | 3.03 µM (inactive) | 1.1 | 1.36 µM (inactive) | 2.76 µM (inactive) |  |
